Measured values reported in patent publication US20260217708A1, “FUSED BENZAZEPINE DERIVATIVES FOR USE IN THE TREATMENT OF CANCER AND EPILEPSY” (UCB BIOPHARMA SRL, priority 2023, published 2026).

Legend:
system Xc^− [1] = biological target: T1, system Xc^− (Homo sapiens, UniProt Q9UPY5); test: Cystine-induced glutamate release assay; assay type: cell-based; parameters: endogenous in cells; host or cells: H4 cells; conditions: H4 cells, sodium-free HEPES buffer, 50 μM L-Cystine, 2 hours, Amplex Red glutamate readout; read-out: pIC50 Cystine-induced glutamate release assay (converted)
T1 sequence (Q9UPY5 1-501): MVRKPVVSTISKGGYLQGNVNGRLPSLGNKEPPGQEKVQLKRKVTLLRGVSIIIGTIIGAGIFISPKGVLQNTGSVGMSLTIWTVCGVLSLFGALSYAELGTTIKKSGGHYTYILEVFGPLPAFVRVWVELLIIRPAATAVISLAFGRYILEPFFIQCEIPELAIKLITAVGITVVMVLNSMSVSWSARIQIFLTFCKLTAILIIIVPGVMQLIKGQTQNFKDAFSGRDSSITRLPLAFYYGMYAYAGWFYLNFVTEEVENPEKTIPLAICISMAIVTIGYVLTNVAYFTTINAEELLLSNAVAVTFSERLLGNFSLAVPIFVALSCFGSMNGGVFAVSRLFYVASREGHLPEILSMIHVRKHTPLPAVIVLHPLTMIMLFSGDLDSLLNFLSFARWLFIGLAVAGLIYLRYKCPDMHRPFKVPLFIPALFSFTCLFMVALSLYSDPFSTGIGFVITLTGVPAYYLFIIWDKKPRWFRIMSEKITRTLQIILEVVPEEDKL
T1 sequence (P08195 1-529 partner): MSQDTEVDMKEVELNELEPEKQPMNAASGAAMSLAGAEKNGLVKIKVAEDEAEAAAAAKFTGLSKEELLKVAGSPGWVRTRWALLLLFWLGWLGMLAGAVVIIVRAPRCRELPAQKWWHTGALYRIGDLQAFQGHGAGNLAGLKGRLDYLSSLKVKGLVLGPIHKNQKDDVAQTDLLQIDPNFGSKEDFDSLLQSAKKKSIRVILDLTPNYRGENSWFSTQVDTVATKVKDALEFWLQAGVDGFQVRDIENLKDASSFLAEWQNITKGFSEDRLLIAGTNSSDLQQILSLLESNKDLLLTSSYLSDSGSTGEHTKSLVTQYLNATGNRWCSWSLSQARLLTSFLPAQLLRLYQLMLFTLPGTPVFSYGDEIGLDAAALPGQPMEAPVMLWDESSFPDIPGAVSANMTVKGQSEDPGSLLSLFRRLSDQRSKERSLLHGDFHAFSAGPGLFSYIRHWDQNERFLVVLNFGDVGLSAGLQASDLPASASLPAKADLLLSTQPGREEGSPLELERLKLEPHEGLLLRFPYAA
How it was run: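 IC50 (reported as pIC50) normalized to DMSO 1% and Erastin 50 μM controls, from Amplex Red fluorescence of glutamate exported into supernatant. H4 cells were washed into sodium-free buffer to exclude EAAT transport, then given compound with 50 μM L-cystine for 2 h in the incubator.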

system Xc^− [2] = biological target: T1, system Xc^−; test: [^14C]L-Cystine uptake assay; assay type: cell-based; parameters: endogenous in cells; host or cells: H4 cells; conditions: H4 cells, sodium-free HEPES buffer, 0.5 μM L-[14C]Cystine and 4.5 μM L-Cystine, 1 hour at 37° C.; read-out: pIC50 [^14C] L-Cystine uptake assay (converted)
How it was run: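 Compound effect is given as pIC50, taken between controls of 1% DMSO and 50 μM Erastin. Human H4 cells were pretreated 15 min with compound in sodium-free buffer, then took up 0.5 μM [14C]cystine with 4.5 μM cold cystine for 1 hour at 37° C, read by scintillation proximity counting.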

IC50 (system Xc^− [1]) [nM] | IC50 (system Xc^− [2]) [nM] | SMILES
39.8 to 100 | 15.8 to 39.8 | CC1C(=O)N(CC(=O)Nc2ccc(C(F)F)cc2)c2cc(C3CC3)nc(Cl)c2-c2cccnc21 (centres unmarked) [#347, 2-(3-chloro-5-cyclopropyl-10-methyl-9-oxo-4,8,12-triazatricyclo[9.4.0.0^2,7]pentadeca-1(15),2,4,6,11,13-hexaen-8-yl)-N-[4-(difluoromethyl)phenyl]acetamide]
15.8 to 39.8 | 39.8 to 100 | Cc1c2c(cc(=O)n1C)N(CC(=O)Nc1ccc(Cl)c(F)c1)C(=O)C(C)c1ccccc1-2 (centres unmarked) [#355, N-(4-chloro-3-fluoro-phenyl)-2-(1,2,7-trimethyl-3,6-dioxo-7H-pyrido[3,4-a][3]benzazepin-5-yl)acetamide]
39.8 to 100 | 39.8 to 100 | Cc1cc2c(c(F)n1)-c1ccn(C)c(=O)c1C(C)C(=O)N2CC(=O)Nc1ccc(Cl)c(F)c1 (centres unmarked) [#356, N-(4-chloro-3-fluoro-phenyl)-2-(3-fluoro-5,10,13-trimethyl-9,12-dioxo-4,8,13-triazatricyclo[9.4.0.0^2,7]pentadeca-1(11),2,4,6,14-pentaen-8-yl)acetamide]
15.8 to 39.8 | 39.8 to 100 | CC1C(=O)N(CC(=O)Nc2ccc(Cl)c(F)c2)c2cc(CO)c(=O)n(C)c2-c2ccccc21 (centres unmarked) [#363, N-(4-chloro-3-fluoro-phenyl)-2-[3-(hydroxymethyl)-1,7-dimethyl-2,6-dioxo-7H-pyrido[3,2-d][3]benzazepin-5-yl]acetamide]
39.8 to 100 | 39.8 to 100 | CC1C(=O)N(CC(=O)Nc2ccc(Cl)c(F)c2)c2ccn(C(F)F)c(=O)c2-c2cccnc21 (centres unmarked) [#366, N-(4-chloro-3-fluoro-phenyl)-2-[4-(difluoromethyl)-10-methyl-3,9-dioxo-4,8,12-triazatricyclo[9.4.0.0^2,7]pentadeca-1(15),2(7),5,11,13-pentaen-8-yl]acetamide]
< 15.8 | < 15.8 | Cc1cc2c(c(OCCO)n1)-c1cccnc1[C@@H](C)C(=O)N2CC(=O)Nc1ccc(C(F)F)cc1 [#374, N-[4-(difluoromethyl)phenyl]-2-[(10R)-3-(2-hydroxyethoxy)-5,10-dimethyl-9-oxo-4,8,12-triazatricyclo[9.4.0.0^2,7]pentadeca-1(11),2(7),3,5,12,14-hexaen-8-yl]acetamide]
< 15.8 | < 15.8 | CC1C(=O)N(CC(=O)Nc2ccc(Cl)c(F)c2)c2cc(OCCO)nc(F)c2-c2cccnc21 (centres unmarked) [#375, N-(4-chloro-3-fluoro-phenyl)-2-[3-fluoro-5-(2-hydroxyethoxy)-10-methyl-9-oxo-4,8,12-triazatricyclo[9.4.0.0^2,7]pentadeca-1(15),2,4,6,11,13-hexaen-8-yl]acetamide]
15.8 to 39.8 | 39.8 to 100 | CC1C(=O)N(CC(=O)Nc2ccc(Cl)c(F)c2)c2cc(F)nc(OCCO)c2-c2cccnc21 (centres unmarked) [#376, N-(4-chloro-3-fluoro-phenyl)-2-[5-fluoro-3-(2-hydroxyethoxy)-10-methyl-9-oxo-4.8,12-triazatricyclo[9.4.0.0^2,7]pentadeca-1(15),2,4,6,11,13-hexaen-8-yl]acetamide]
15.8 to 39.8 | 39.8 to 100 | CC1C(=O)N(CC(=O)Nc2ccc(C(F)F)cc2)c2cc(OC3CN(C)C3)nc(F)c2-c2cccnc21 (centres unmarked) [#378, N-[4-(difluoromethyl)phenyl]-2-[3-fluoro-10-methyl-5-(1-methylazetidin-3-yl)oxy-9-oxo-4,8,12-triazatricyclo[9.4.0.0^2,7]pentadeca-1(15),2,4,6,11,13-hexaen-8-yl]acetamide]

More lines, now with the values behind:

SMILES | IC50 (system Xc^− [1]) [nM] | IC50 (system Xc^− [2]) [nM]
CC1C(=O)N(CC(=O)Nc2ccc(C(F)F)cc2)c2cc(C3CC3C(F)(F)F)cc(F)c2-c2cccnc21 (centres unmarked) [#346, N-[4-(difluoromethyl)phenyl]-2-[11-fluoro-5-methyl-6-oxo-9-[2-(trifluoromethyl)cyclopropyl]-5H-pyrido[2,3-d][1]benzazepin-7-yl]acetamide] | 39.8 to 100 | 39.8 to 100
CCn1c2c(cc(C)c1=O)N(CC(=O)Nc1ccc(Cl)c(F)c1)C(=O)C(C)c1ccccc1-2 (centres unmarked) [#349, N-(4-chloro-3-fluoro-phenyl)-2-(1-ethyl-3,7-dimethyl-2,6-dioxo-7H-pyrido[3,2-d][3]benzazepin-5-yl)acetamide] | 15.8 to 39.8 | < 15.8
Cc1cc2c(n(C)c1=O)-c1ccccc1CC(=O)N2CC(=O)Nc1ccc(Cl)c(F)c1 [#350, N-(4-chloro-3-fluoro-phenyl)-2-(1,3-dimethyl-2,6-dioxo-7H-pyrido[3,2-d][3]benzazepin-5-yl)acetamide] | 15.8 to 39.8 | 15.8 to 39.8
CC1C(=O)N(CC(=O)Nc2ccc(Cl)c(F)c2)c2ccn(C)c(=O)c2-c2ccccc21 (centres unmarked) [#351, N-(4-chloro-3-fluoro-phenyl)-2-(2,7-dimethyl-1,6-dioxo-7H-pyrido[4,3-d][3]benzazepin-5-yl)acetamide] | 39.8 to 100 | 39.8 to 100
Cc1cc2c(c(=O)n1C)-c1ccc(Cl)cc1C(C)C(=O)N2CC(=O)Nc1ccc(Cl)c(F)c1 (centres unmarked) [#352, N-(4-chloro-3-fluoro-phenyl)-2-(9-chloro-2,3,7-trimethyl-1,6-dioxo-7H-pyrido[4,3-d][3]benzazepin-5-yl)acetamide] | 15.8 to 39.8 | < 15.8
Cc1cc2c(n(C)c1=O)-c1ccnn1C(C)C(=O)N2CC(=O)Nc1ccc(Cl)c(F)c1 (centres unmarked) [#353, N-(4-chloro-3-fluoro-phenyl)-2-(7,12,14-trimethyl-8,13-dioxo-5,6,9,14-tetrazatricyclo[8.4.0.0^2,6]tetradeca-1(10),2,4,11-tetraen-9-yl)acetamide] | 15.8 to 39.8 | 39.8 to 100
Cc1cc2c(n(C)c1=O)-c1ccc(F)cc1C(C)C(=O)N2CC(=O)Nc1ccc(Cl)c(F)c1 (centres unmarked) [#354, N-(4-chloro-3-fluoro-phenyl)-2-(9-fluoro-1,3,7-trimethyl-2,6-dioxo-7H-pyrido[3,2-d][3]benzazepin-5-yl)acetamide] | 15.8 to 39.8 | < 15.8
Cc1cc2c(c(=O)n1C)-c1sccc1C(C)C(=O)N2CC(=O)Nc1ccc(C(F)F)cc1 (centres unmarked) [#361, N-[4-(difluoromethyl)phenyl]-2-(7,12,13-trimethyl-8,14-dioxo-3-thia-9,13-diazatricyclo[8.4.0.0^2,6]tetradeca-1(10),2(6),4,11-tetraen-9-yl)acetamide] | 15.8 to 39.8 | < 15.8
COc1cc2c(c(=O)n1C)-c1ccccc1C(C)C(=O)N2CC(=O)Nc1ccc(C(F)F)cc1 (centres unmarked) [#362, N-[4-(difluoromethyl)phenyl]-2-(3-methoxy-2,7-dimethyl-1,6-dioxo-7H-pyrido[4,3-d][3]benzazepin-5-yl)acetamide] | 15.8 to 39.8 | < 15.8
Cc1cc(F)c2c(c1)N(CC(=O)Nc1ccc(C(F)F)cc1)C(=O)C(C)c1ncncc1-2 (centres unmarked) [#370, N-[4-(difluoromethyl)phenyl]-2-(11-fluoro-5,9-dimethyl-6-oxo-5H-pyrimido[4,5-d][1]benzazepin-7-yl)acetamide] | 39.8 to 100 | 39.8 to 100
Cc1cc2c(c(Cl)n1)-c1cccnc1C(O)C(=O)N2CC(=O)Nc1ccc(C(F)(F)F)cc1 (centres unmarked) [#379, 2-(3-chloro-10-hydroxy-5-methyl-9-oxo-4,8,12-triazatricyclo[9.4.0.0^2,7]pentadeca-1(15),2(7),3,5,11,13-hexaen-8-yl)-N-[4-(trifluoromethyl)phenyl]acetamide] | 15.8 to 39.8 | < 15.8
CC1C(=O)N(CC(=O)Nc2ccc(C(F)F)cc2)c2cc(C#N)cc(Cl)c2-c2ccnn21 (centres unmarked) [#388, 2-(11-chloro-9-cyano-5-methyl-6-oxo-5H-pyrazolo[1,5-d][1,4]benzodiazepin-7-yl)-N-[4-(difluoromethyl)phenyl]acetamide] | 15.8 to 39.8 | 15.8 to 39.8
COc1nc(C)cc2c1-c1ccccc1CC(=O)N2CC(=O)Nc1ccc(C(F)(F)F)cc1 [#390, 2-(1-methoxy-3-methyl-6-oxo-7H-pyrido[4,3-d][3]benzazepin-5-yl)-N-[4-(trifluoromethyl)phenyl]acetamide] | 15.8 to 39.8 | 15.8 to 39.8
